{"source": "paper PMC10663837", "about": "(iScience, 2023)", "molecules": {"B1": {"name": "Human p23, purified (natural protein, UniProt Q15185 1-160, looked up)", "chain": "MQPASAKWYDRRDYVFIEFCVEDSKDVNVNFEKSKLTFSCLGGSDNFKHLNEIDLFHCIDPNDSKHKRTDRSILCCLRKGESGQSWPRLTKERAKLNWLSVDFNNWKDWEDDSDEDMSNFDRFSEMMNNMGGDEDVDLPEVDGADDDSQDSDDEKMPDLE"}}, "key": {"PD-L1 and PD-L2": {"system": "PD-L1 and PD-L2", "settings": "Hsp90 N-terminal inhibitors; cited from earlier work"}, "[1]": {"system": "patient-derived human melanoma cells", "settings": "cited from earlier work"}, "[2]": {"system": "progesterone receptor (PR) refolding by Hsp90 chaperone machine", "assay": "Progesterone receptor", "format": "biochemical, rabbit"}, "Hsp90β [3]": {"system": "Hsp90β", "assay": "Cellular thermal shift assay", "format": "cell-based, murine", "settings": "E0771 cells, 20 μM, 90 mn"}, "cancer cells [4]": {"system": "cancer cells", "settings": "cited from earlier work"}, "Hsp90β/p23": {"system": "Hsp90β/p23", "assay": "Co-immunoprecipitation of purified Hsp90β with p23", "format": "binding, human", "settings": "40 μM EnnA or 5 μM 17-AAG, 5 mM ATP, 30 min 30°C"}, "Hsp90β/HOP": {"system": "Hsp90β/HOP", "assay": "Co-immunoprecipitation of purified Hsp90β with HOP", "format": "binding, human", "settings": "40 μM EnnA or 5 μM 17-AAG, 5 mM ATP, 30 min 30°C"}, "[5]": {"system": "Hsp90 client proteins, Hsp70, Hsp40, Hsp27", "assay": "Western blot of Hsp90 client and heat shock proteins in cells", "format": "cell-based, human and murine"}, "4T1 tumors": {"system": "4T1 tumors", "assay": "Histology", "format": "in vivo, mouse"}, "[6]": {"system": "4T1 tumor-infiltrating CD8+ T cells", "assay": "Immunofluorescence of 4T1 tumor-infiltrating immune cells", "format": "in vivo, mouse", "settings": "EnnA 10 mg/kg/48 h, 17-AAG 25 mg/kg/48 h"}, "MDA-MB-231 cells": {"system": "MDA-MB-231 cells", "assay": "Flow cytometry of surface Hsp90, calreticulin, HMGB1, MDA-MB-231 cells", "format": "cell-based, human", "settings": "7.5 μM EnnA, 0.5 µM 17-AAG, 24h"}, "E0771 transcriptome": {"system": "E0771 transcriptome", "assay": "Bulk RNA-seq of E0771 cells", "format": "cell-based, murine", "settings": "∼14%"}, "[7]": {"system": "MEFs, MCF10A, E0771, Hs578T cells", "assay": "Cytotoxicity to normal versus cancer cells", "format": "cell-based, mouse and human", "settings": "24, 48, 72 h; EnnA 1.25-20 µM, 17AAG 0.15-5 µM; absorbance 490 nm"}, "[8]": {"system": "cytokine/chemokine mRNA in E0771 cells", "assay": "RTqPCR of cytokines, chemokines and CX3CR1"}, "E0771 tumors": {"system": "E0771 tumors", "assay": "EnnA combined with CX3CR1 antagonist JMS-17-2, E0771 tumors", "format": "in vivo, mouse", "settings": "JMS-17-2 10 mg/kg i.p. every 48 h alternating with EnnA 10 mg/kg"}, "[9]": {"system": "lung breast cancer metastasis", "settings": "cited from earlier work"}, "Hsp90β [10]": {"system": "Hsp90β", "settings": "cited from earlier work"}, "cancer cells [11]": {"system": "cancer cells", "settings": "cited from earlier work", "remark": "listed apart in the source"}, "Human Hsp90β, purified": {"biological_target": "Human Hsp90β, purified (human, UniProt P08238 1-724)", "sequence (P08238 whole entry)": "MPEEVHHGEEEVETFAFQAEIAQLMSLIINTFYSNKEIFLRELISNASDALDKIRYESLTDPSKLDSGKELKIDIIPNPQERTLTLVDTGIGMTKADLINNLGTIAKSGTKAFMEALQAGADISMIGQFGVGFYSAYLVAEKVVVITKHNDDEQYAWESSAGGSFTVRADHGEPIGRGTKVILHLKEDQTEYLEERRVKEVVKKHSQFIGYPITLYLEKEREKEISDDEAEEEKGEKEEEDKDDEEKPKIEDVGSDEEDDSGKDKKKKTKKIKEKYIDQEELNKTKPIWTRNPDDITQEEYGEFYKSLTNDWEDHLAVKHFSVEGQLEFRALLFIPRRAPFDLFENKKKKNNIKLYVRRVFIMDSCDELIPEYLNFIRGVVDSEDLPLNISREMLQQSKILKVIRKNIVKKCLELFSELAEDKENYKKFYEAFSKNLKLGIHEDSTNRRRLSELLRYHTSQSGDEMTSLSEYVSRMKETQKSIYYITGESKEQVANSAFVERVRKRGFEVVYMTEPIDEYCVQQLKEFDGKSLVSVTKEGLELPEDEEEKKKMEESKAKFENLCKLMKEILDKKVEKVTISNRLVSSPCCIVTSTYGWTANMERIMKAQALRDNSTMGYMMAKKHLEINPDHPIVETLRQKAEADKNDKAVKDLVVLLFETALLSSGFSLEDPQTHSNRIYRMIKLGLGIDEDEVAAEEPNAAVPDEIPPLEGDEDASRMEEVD", "assay": "co-IP"}}, "data": [{"molecule": "CC(C)c1cc(-c2n[nH]c(=O)n2-c2ccc3c(ccn3C)c2)c(O)cc1O", "note": "[ganetespib]", "values": [{"measurement": "transcription and cell-surface expression of PD-L1 and PD-L2", "setting": "PD-L1 and PD-L2", "value": "significant decrease in the transcription and cancer cell-surface expression of immune checkpoint ligands PD-L1 and PD-L2"}, {"measurement": "T-cell-mediated killing of melanoma cells", "setting": "[1]; autologous T cells in vitro", "value": "enhances T-cell-mediated killing of patient-derived human melanoma cells"}, {"measurement": "effect on anti-CTLA4 and anti-PD-1 therapy", "setting": "[1]; in vivo", "value": "potentiates responses to anti-CTLA4 and anti-PD-1 therapy in vivo"}]}, {"molecule": "Enniatin B [AD96]", "values": [{"measurement": "inhibition of PR refolding", "setting": "[2]; RRL, Figures S1A–S1C, 10 µM drug in screen", "value": "did not inhibit the PR refolding"}, {"measurement": "CETSA stabilization of Hsp90", "setting": "Hsp90β [3]", "value": "did not stabilize Hsp90"}]}, {"molecule": "CCNC(=O)c1noc(-c2cc(C(C)C)c(O)cc2O)c1-c1ccc(CN2CCOCC2)cc1", "note": "[Luminespib]", "values": [{"measurement": "transcription and cell-surface expression of PD-L1 and PD-L2", "setting": "PD-L1 and PD-L2", "value": "significant decrease in the transcription and cancer cell-surface expression of immune checkpoint ligands PD-L1 and PD-L2"}]}, {"molecule": "CC(C)C[C@H](NC(=O)[C@H](Cc1ccccc1)NC(=O)c1cnccn1)B(O)O", "note": "[bortezomib]", "values": [{"measurement": "Hsp90 exposure at cell surface", "setting": "cancer cells [4]", "value": "expose Hsp90 at the cell surface"}]}, {"molecule": "CC1(C)CC(=O)c2c(C(F)(F)F)nn(-c3ccc(C(N)=O)c(N[C@H]4CC[C@H](OC(=O)CN)CC4)c3)c2C1", "note": "[SNX-5422]", "values": [{"measurement": "transcription and cell-surface expression of PD-L1 and PD-L2", "setting": "PD-L1 and PD-L2", "value": "significant decrease in the transcription and cancer cell-surface expression of immune checkpoint ligands PD-L1 and PD-L2"}]}, {"molecule": "CC(C)NCCCn1c(Sc2cc3c(cc2I)OCO3)nc2c(N)ncnc21", "note": "[PU-H71]", "values": [{"measurement": "transcription and cell-surface expression of PD-L1 and PD-L2", "setting": "PD-L1 and PD-L2", "value": "significant decrease in the transcription and cancer cell-surface expression of immune checkpoint ligands PD-L1 and PD-L2"}]}, {"molecule": "C=CCNC1=C2C[C@@H](C)C[C@H](OC)[C@H](O)[C@@H](C)/C=C(\\C)[C@H](OC(N)=O)[C@@H](OC)/C=C\\C=C(/C)C(=O)NC(=CC1=O)C2=O", "note": "[17-AAG, 17-N-allylamino-demethoxygeldanamycin]", "values": [{"measurement": "accumulation of Hsp70-rich intermediate chaperoning complexes", "setting": "[2]; SDS-PAGE/Coomassie, 1 μM 17-AAG, 10 μM EnnA", "value": "accumulation of the intermediate chaperoning complexes rich with Hsp70 as observed with 17-AAG"}, {"measurement": "effect on Hsp90β binding to p23", "setting": "Hsp90β/p23", "value": "as with 17-AAG, EnnA disrupts Hsp90β binding to p23"}, {"measurement": "effect on Hsp90β binding to HOP", "setting": "Hsp90β/HOP", "value": "unlike 17-AAG, EnnA does not affect HOP binding to purified Hsp90β"}, {"measurement": "heat shock response (mRNA and protein of Hsp70, Hsp40, Hsp27)", "setting": "[5]; 0.5 μM 17-AAG", "value": "upregulation of mRNA and protein levels of Hsp70, Hsp40, and Hsp27"}, {"measurement": "Hsp90 client protein level", "setting": "[5]; EnnA at EC50, 0.5 μM 17-AAG", "value": "induced Hsp90 client protein degradation"}, {"measurement": "tumor necrosis", "setting": "4T1 tumors; 4T1, H&E, EnnA 10 mg/kg, 17-AAG 25 mg/kg", "value": "more necrotic than controls"}, {"measurement": "immune-like cell infiltration of necrotic areas", "setting": "4T1 tumors; 4T1 tumors", "value": "not as infiltrated as in the case of EnnA-treated animals"}, {"measurement": "CD8+ T cell infiltration", "setting": "[6]", "value": "much less so in the 17-AAG-treated group"}, {"measurement": "surface exposure of Hsp90, calreticulin, HMGB1 vs 17-AAG", "setting": "MDA-MB-231 cells", "value": "not induced by 17-AAG"}, {"measurement": "number of genes in common between EnnA and 17-AAG", "setting": "E0771 transcriptome", "value": 34, "unit": "genes"}, {"measurement": "discrimination between cancer and non-transformed cells", "setting": "[7]", "value": "does not discriminate between cancer and non-transformed immortalized cells in cell culture"}, {"measurement": "IL10 mRNA", "setting": "[8]; E0771, RNA-seq and RTqPCR", "value": "decreased mRNA expression of anti-inflammatory cytokines such as IL10"}, {"measurement": "pro-inflammatory cytokines IL12b, TNFα, IL1β mRNA", "setting": "[8]; RTqPCR", "value": "limited impact on these inflammatory cytokines"}]}, {"molecule": "COC1=C2C[C@@H](C)C[C@H](OC)[C@H](O)[C@@H](C)/C=C(\\C)[C@H](OC(N)=O)[C@@H](OC)/C=C\\C=C(/C)C(=O)NC(=CC1=O)C2=O", "note": "[geldanamycin]", "values": [{"measurement": "transcription and cell-surface expression of PD-L1 and PD-L2", "setting": "PD-L1 and PD-L2", "value": "significant decrease in the transcription and cancer cell-surface expression of immune checkpoint ligands PD-L1 and PD-L2"}]}, {"molecule": "Cl.O=c1c2cccn2c2ccccc2n1CCCN1CCC(c2ccc(Cl)cc2)CC1", "note": "[JMS-17-2, 5-[3-[4-(4-Chlorophenyl)-1-piperidinyl]propyl]pyrrolo[1,2-a]quinoxalin-4(5H)-one hydrochloride]", "values": [{"measurement": "effect on EnnA antitumor efficacy", "setting": "E0771 tumors", "value": "significantly reduced the efficacy of EnnA"}, {"measurement": "lung breast cancer metastasis", "setting": "[9]", "value": "reduce lung breast cancer metastasis"}]}, {"molecule": "CC(C)=CCC[C@]1(C)C=Cc2c(O)c3c(c(CC=C(C)C)c2O1)O[C@]12C(=C[C@@H]4C[C@H]1C(C)(C)O[C@@]2(C/C=C(/C)C(=O)O)C4=O)C3=O", "note": "[GBA]", "values": [{"measurement": "binding to Hsp90β middle domain", "setting": "Hsp90β [10]", "value": "binds selectively to the middle domain of Hsp90β"}, {"measurement": "mode of cancer cell death", "setting": "cancer cells [11]", "value": "GBA-induced cancer cell paraptosis"}]}, {"molecule": "B1", "values": [{"measurement": "binding result", "setting": "Human Hsp90β, purified", "value": "binds"}]}]}
